Where a SMILES comes first, the peptide text is derived from it. Where no end group is shown, it is not given here. [ ]: non-standard residue; d: D form.

As usually defined, the Kd is a measure of binding affinity in units of concentration. The low end stands for higher affinity, the high end for lower affinity. What is called koff is a measure of how fast the partners let go of each other.

The target in experiment [1] is HSA (Human serum albumin) (Homo sapiens, UniProt P02768). Kind of experiment: BIAcore X (SPR) affinity for HSA. It counts as binding. The following applies: for kon: PBS pH 7.4, read-out: ka. The protocol:
(§1) To investigate whether the activity is maintained where Aptamer-Like Peptides specifically binding to HSA (Human serum albumin), i.e., L-AptideHSA are converted into D- and Retro inverso (RI)-form, their affinity to a target was measured. Firstly, 3 peptides, L-AptideHSA ([…], all L-amino acids, SEQ ID NO:42), D-AptideHSA ([…], all D-amino acids, SEQ ID NO:42) and RI-AptideHSA ([…], all D-amino acids), were synthesized by Anigen Inc. (Korea). Their affinity for a target was determined using BIAcore X (Biacore AB, Uppsala, Sweden). HSA of 3000 RU was immobilized on CM5 chip (Biacore). A PBS (pH 7.4) was used as a running buffer, a flow rate was 30 μl/min, and the affinity was determined with BIAevaluation software (Biacore AB, Uppsala, Sweden) after measuring kinetics of various concentrations.
(In SPR one partner is held on a chip, and binding of the other changes the refractive index at the surface.)

For another experiment, the target named is T1, fibronectin EDB (Homo sapiens, UniProt P02751).
T1 construct: Biotin-EDB of 2000 RU was immobilized on streptavidin SA chip
Kind of experiment: BIAcore X (SPR) affinity for fibronectin EDB. It counts as binding. The protocol: To investigate whether the activity is maintained where Aptamer-Like Peptides specifically binding to fibronectin EDB, i.e., L-Aptide1EDB are converted into D- and Retro inverso (RI)-form, their affinity to a target was measured. Firstly, 3 peptides, L-Aptide1EDB ([…], all L-amino acids, SEQ ID NO:21), D-Aptide1EDB ([…], all D-amino acids, SEQ ID NO:21) and RI-Aptide1EDB ([…], all D-amino acids), were synthesized by Anigen Inc. (Korea). Their affinity for a target was determined using BIAcore X (Biacore AB, Uppsala, Sweden). Biotin-EDB of 2000 RU was immobilized on streptavidin SA chip (Biacore). A PBS (pH 7.4) was used as a running buffer, a flow rate was 30 μl/min, and the affinity was determined with BIAevaluation software (Biacore AB, Uppsala, Sweden) after measuring kinetics of various concentrations.

Experiment [2] deals with T2, VEGF121 (Homo sapiens, UniProt P15692).
T2 sequence (P15692 27-147 isoform P15692-9): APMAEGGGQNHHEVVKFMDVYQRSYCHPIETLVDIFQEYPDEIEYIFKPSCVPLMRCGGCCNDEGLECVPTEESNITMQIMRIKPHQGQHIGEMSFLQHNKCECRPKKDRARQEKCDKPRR
Briefly: BIAcore X (SPR) affinity for VEGF. It counts as binding. The protocol: as §1, with “VEGF (Vascular endothelial growth factor),” for “HSA (Human serum albumin),”, “L-Aptide1VEGF” for “L-AptideHSA”, “NO:23), D-Aptide1VEGF” for “NO:42), D-AptideHSA”, “NO:23)” for “NO:42)”, “RI-Aptide1VEGF” for “RI-AptideHSA”, “VEGF121” for “HSA”

For experiment [3], the target named is T3, HSA (Human serum albumin) (human, UniProt P02768 25-609).
T3 construct: HSA, 3000 RU, immobilised on a CM5 chip; also called HAS
T3 sequence (P02768 25-609 limits assumed): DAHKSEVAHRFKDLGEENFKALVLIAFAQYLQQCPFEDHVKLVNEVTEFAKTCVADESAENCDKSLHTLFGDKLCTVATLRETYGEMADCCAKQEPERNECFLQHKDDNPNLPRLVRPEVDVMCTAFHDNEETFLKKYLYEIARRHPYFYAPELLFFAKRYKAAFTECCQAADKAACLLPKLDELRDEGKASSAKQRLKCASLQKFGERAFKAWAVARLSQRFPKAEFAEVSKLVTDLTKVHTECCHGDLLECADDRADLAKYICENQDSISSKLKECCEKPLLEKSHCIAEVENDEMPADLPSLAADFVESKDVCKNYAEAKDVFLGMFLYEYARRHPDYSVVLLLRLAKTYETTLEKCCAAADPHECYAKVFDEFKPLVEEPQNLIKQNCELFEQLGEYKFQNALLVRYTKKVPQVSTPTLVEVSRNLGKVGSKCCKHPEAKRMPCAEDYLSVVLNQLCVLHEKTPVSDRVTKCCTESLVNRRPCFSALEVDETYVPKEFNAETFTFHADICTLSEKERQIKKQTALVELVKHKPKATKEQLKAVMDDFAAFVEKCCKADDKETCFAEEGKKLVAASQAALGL
Kind of experiment: SPR, BIAcore X; HSA on CM5 chip, peptide as analyte. Here is the method:
(§2) To investigate whether the activity is maintained where Aptamer-Like Peptides specifically binding to HSA (Human serum albumin), i.e., L-AptideHSA are converted into D- and Retro inverso (RI)-form, their affinity to a target was measured. Firstly, 3 peptides, L-AptideHSA ([…], all L-amino acids, SEQ ID NO:42), D-AptideHSA ([…], all D-amino acids, SEQ ID NO:42) and RI-AptideHSA ([…], all D-amino acids), were synthesized by Anigen Inc. (Korea). Their affinity for a target was determined using BIAcore X (Biacore AB, Uppsala, Sweden). HSA of 3000 RU was immobilized on CM5 chip (Biacore).

Experiment [4] concerns the target T4, VEGF121 (UniProt P15692-9 27-147).
T4 construct: VEGF121, 3000 RU, immobilised on a CM5 chip; also called Vascular endothelial growth factor
T4 sequence (looked up): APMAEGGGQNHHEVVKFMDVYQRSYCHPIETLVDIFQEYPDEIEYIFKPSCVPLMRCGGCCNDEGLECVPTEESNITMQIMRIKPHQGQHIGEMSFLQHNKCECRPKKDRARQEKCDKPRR
Kind of experiment: SPR, BIAcore X; VEGF121 on CM5 chip, peptide as analyte. Here is the method: as §2, with “VEGF (Vascular endothelial growth factor),” for “HSA (Human serum albumin),”, “L-Aptide1VEGF” for “L-AptideHSA”, “NO:23), D-Aptide1VEGF” for “NO:42), D-AptideHSA”, “NO:23)” for “NO:42)”, “RI-Aptide1VEGF” for “RI-AptideHSA”, “VEGF₁₂₁” for “HSA”

Where [5] appears, read: biotin-EDB on SA chip, PBS pH 7.4.
Where [6] appears, read: VEGF121 on CM5 chip, PBS pH 7.4.

`CC[C@@H](C)[C@@H](NC(=O)CNC(=O)[C@@H](CCCCN)NC(=O)[C@@H](Cc1c[nH]c2ccccc12)NC(=O)[C@H](NC(=O)[C@@H](Cc1c[nH]c2ccccc12)NC(=O)[C@@H](CCCCN)NC(=O)CNC(=O)[C@@H](CC(N)=O)NC(=O)[C@@H](CCC(=O)O)NC(=O)[C@@H](Cc1c[nH]c2ccccc12)NC(=O)[C@H](NC(=O)[C@@H](Cc1c[nH]c2ccccc12)NC(=O)[C@@H](CO)NC(=O)CNC(=O)[C@@H](Cc1ccccc1)NC(=O)[C@@H](CC(N)=O)NC(=O)[C@@H](Cc1ccccc1)NC(=O)[C@@H](Cc1c[nH]cn1)NC(=O)[C@@H](C)NC(=O)[C@H](N)Cc1c[nH]cn1)[C@H](C)O)[C@H](C)O)C(=O)N[C@H](Cc1c[nH]c2ccccc12)C(=O)N[C@H](CC(C)C)C(=O)N1CCC[C@@H]1C(=O)N[C@H](C)C(=O)N[C@H](CCCNC(=N)N)C(=O)O` [D-AptideHSA] (H-[dH][dA][dH][dF][dN][dF]G[dS][dW][dT][dW][dE][dN]G[dK][dW][dT][dW][dK]G[dI][dW][dL][dP][dA][dR]-OH; N-terminus and C-terminus assumed) gave a kd in experiment [1] (HSA on CM5 chip, PBS pH 7.4) of 0.014 s⁻¹. In addition, the kon in experiment [1] (HSA on CM5 chip) is 97000 M⁻¹ s⁻¹.

As for `CC[C@H](C)[C@H](NC(=O)CNC(=O)[C@H](CCCCN)NC(=O)[C@H](Cc1c[nH]c2ccccc12)NC(=O)[C@@H](NC(=O)[C@H](Cc1c[nH]c2ccccc12)NC(=O)[C@H](CCCCN)NC(=O)CNC(=O)[C@H](CC(N)=O)NC(=O)[C@H](CCC(=O)O)NC(=O)[C@H](Cc1c[nH]c2ccccc12)NC(=O)[C@@H](NC(=O)[C@H](Cc1c[nH]c2ccccc12)NC(=O)[C@H](CO)NC(=O)CNC(=O)[C@H](Cc1ccccc1)NC(=O)[C@H](CC(N)=O)NC(=O)[C@H](Cc1ccccc1)NC(=O)[C@H](Cc1c[nH]cn1)NC(=O)[C@H](C)NC(=O)[C@@H](N)Cc1c[nH]cn1)[C@@H](C)O)[C@@H](C)O)C(=O)N[C@@H](Cc1c[nH]c2ccccc12)C(=O)N[C@@H](CC(C)C)C(=O)N1CCC[C@H]1C(=O)N[C@@H](C)C(=O)N[C@@H](CCCNC(=N)N)C(=O)O` [L-AptideHSA] (H-HAHFNFGSWTWENGKWTWKGIWLPAR-OH; N-terminus and C-terminus assumed), the kd in experiment [1] (HSA on CM5 chip, PBS pH 7.4) was found to be 0.013 s⁻¹. Besides, the kon in experiment [1] (HSA on CM5 chip) was 95000 M⁻¹ s⁻¹.

For `CC[C@@H](C)[C@@H](NC(=O)[C@@H](CCCNC(=N)N)NC(=O)[C@@H](CC(C)C)NC(=O)[C@@H](CCC(=O)O)NC(=O)[C@H](N)CCC(N)=O)C(=O)N[C@@H](C(=O)NCC(=O)N[C@H](CCCCN)C(=O)N[C@H](Cc1c[nH]c2ccccc12)C(=O)N[C@@H](C(=O)N[C@H](Cc1c[nH]c2ccccc12)C(=O)N[C@H](CCCCN)C(=O)NCC(=O)N[C@H](CC(N)=O)C(=O)N[C@H](CCC(=O)O)C(=O)N[C@H](Cc1c[nH]c2ccccc12)C(=O)N[C@@H](C(=O)N[C@H](Cc1c[nH]c2ccccc12)C(=O)N[C@H](CO)C(=O)NCC(=O)N[C@@H](C(=O)N[C@H](C)C(=O)N[C@H](CO)C(=O)N[C@H](CO)C(=O)N[C@H](CS)C(=O)N[C@H](Cc1c[nH]cn1)C(=O)O)C(C)C)[C@H](C)O)[C@H](C)O)[C@H](C)CC` [RI-Aptide1EDB] (H-[dQ][dE][dL][dR][dI][dI]G[dK][dW][dT][dW][dK]G[dN][dE][dW][dT][dW][dS]G[dV][dA][dS][dS][dC][dH]-OH; N-terminus and C-terminus assumed), at fibronectin EDB (setting [5]), binding was put at a Kd of 58 nM and the “koff (dissociation rate constant)” value was found to be 0.0011 s⁻¹. Further, at fibronectin EDB (biotin-EDB on SA chip, PBS pH 7.4, read-out: ka), the kon was found to be 19000 M⁻¹ s⁻¹. At fibronectin EDB (compared with L-Aptide), the “binding to target, in words” value was “affinity similar to L-Aptide”.

In experiment [1] (HSA on CM5 chip, PBS pH 7.4), `CC[C@@H](C)[C@@H](NC(=O)[C@@H](Cc1c[nH]c2ccccc12)NC(=O)[C@@H](CC(C)C)NC(=O)[C@H]1CCCN1C(=O)[C@@H](C)NC(=O)[C@H](N)CCCNC(=N)N)C(=O)NCC(=O)N[C@H](CCCCN)C(=O)N[C@H](Cc1c[nH]c2ccccc12)C(=O)N[C@@H](C(=O)N[C@H](Cc1c[nH]c2ccccc12)C(=O)N[C@H](CCCCN)C(=O)NCC(=O)N[C@H](CC(N)=O)C(=O)N[C@H](CCC(=O)O)C(=O)N[C@H](Cc1c[nH]c2ccccc12)C(=O)N[C@@H](C(=O)N[C@H](Cc1c[nH]c2ccccc12)C(=O)N[C@H](CO)C(=O)NCC(=O)N[C@H](Cc1ccccc1)C(=O)N[C@H](CC(N)=O)C(=O)N[C@H](Cc1ccccc1)C(=O)N[C@H](Cc1c[nH]cn1)C(=O)N[C@H](C)C(=O)N[C@H](Cc1c[nH]cn1)C(=O)O)[C@H](C)O)[C@H](C)O` [RI-AptideHSA] (H-[dR][dA][dP][dL][dW][dI]G[dK][dW][dT][dW][dK]G[dN][dE][dW][dT][dW][dS]G[dF][dN][dF][dH][dA][dH]-OH; N-terminus and C-terminus assumed) displayed a Kd of 141 nM and a kd of 0.0082 s⁻¹. Besides, the kon in experiment [1] (HSA on CM5 chip) worked out at 58000 M⁻¹ s⁻¹. In addition, the “binding to target, in words” value in experiment [1] (compared with L-Aptide) is recorded as “affinity similar to L-Aptide”.

Take “SQNYKWGKWTWKGNEWTWSGQFFNAH [RI-Aptide1VEGF]”: the “binding to target, in words” value at VEGF121 [2] was “barely bound”. Further, on VEGF121 [2] (setting [6]), the Kd result is reported as “Non-binding”, the ka result was “Non-binding” and the kd entry was “Non-binding”.

For [dR][dA][dP][dL][dW][dI]G[dK][dW][dT][dW][dK]G[dN][dE][dW][dT][dW][dS]G[dF][dN][dF][dH][dA][dH] (designed binder) [RI-AptideHSA], the koff in experiment [3] was found to be 0.0082 s⁻¹.

[dH][dA][dN][dF][dF][dQ]G[dS][dW][dT][dW][dE][dN]G[dK][dW][dT][dW][dK]G[dW][dK][dY][dN][dQ][dS] (designed binder) [D-Aptide1VEGF] came in with a koff with VEGF121 [4] of 0.0066 s⁻¹.

B1: L-Aptide1VEGF (designed binder)
peptide: HANFFQGSWTWENGKWTWKGWKYNQS
notes: Synthetic 26-mer, all L-amino acids; also called L-AptideVEGF; Aptide1VEGF (L-form)
For B1, in the experiment with VEGF121 [4], the Kd came to 30 nM and the koff came out at 0.01 s⁻¹.

In experiment [3], [dH][dA][dH][dF][dN][dF]G[dS][dW][dT][dW][dE][dN]G[dK][dW][dT][dW][dK]G[dI][dW][dL][dP][dA][dR] (designed binder) [D-AptideHSA] yielded a dissociation constant (Kd) of 153 nM and an off-rate (koff) of 0.014 s⁻¹.

B2: L-AptideHSA (designed binder)
peptide: HAHFNFGSWTWENGKWTWKGIWLPAR
notes: Synthetic 26-mer, all L-amino acids; also called AptideHSA (L-form)
Turning to B2, in experiment [3], the Kd stood at 142 nM and the koff was 0.013 s⁻¹.
